According to a melting point compilation (Tetko et al.; mined from patent text by program, amines drawn as free bases though some values may be those of a salt):

Compound | melting point [°C]
COc1ccc(C2CCc3cc(OC)ccc3C2C#N)cc1 (configuration not stated) | 92
CCc1c[nH]c(=O)c(N)c1Sc1cc(C)cc(C)c1 | 208 to 209
COc1cc([N+](=O)[O-])c(NCCCO)cc1O | 149
CC(C)(C)OCCCC1(O)c2ccccc2COc2ccccc21 (configuration not stated) | 113 to 115
Nc1ncccc1C(=O)NCC1CCN(C[C@H]2COc3ccc4[nH]ccc4c3O2)CC1 | 104 to 106
CCc1nc2c(N)nc3ccccc3c2n1CC#Cc1ccc(OC)cc1 | 179 to 181
O=C1CCC(N2Cc3c(OCc4ccc5ccccc5c4)cccc3C2=O)C(=O)N1 (configuration not stated) | 277 to 279
COc1ccc(S(=O)(=O)c2nccn2C(C)C)cc1 | 84 to 86
O=C(O)c1cnc(C(=O)O)c2ccccc12 | 216
COC(=O)CCCCCCCCC(=O)c1ccccc1 | 37 to 38
O=C1c2ccccc2-n2cnc(Cl)c2[C@@H]2CCN12 | 210 to 214
CC(=O)NC1=NN(c2ccc(Cl)cc2)CC1C (configuration not stated) | 172 to 173
C#CCN1C(=O)C(C)(C)NC(C)(C)C1=O | 77 to 80
COCCOC(=O)C1=C(O)c2ccccc2S(=O)(=O)N1C | 106 to 108
CCN(CC)CCOc1ccc([N+](=O)[O-])cc1NC(C)=O | 117
CCCCc1nc(C(C)(C)O)c(C(N)=O)n1Cc1ccc(-c2ccccc2C(=O)O)cc1 | 130 to 138
CNc1ccc(OC)cc1[N+](=O)[O-] | 93 to 94
COc1nnc(N)c(=O)n1C | 198 to 199
CS(=O)(=O)OCN1C=NN(c2c(Cl)cc(C(F)(F)F)cc2Cl)C1 | 96 to 97
Nc1cc(C(F)(F)F)cc2c(Cl)ccnc12 | 57 to 58
Cn1c2ccc([N+](=O)[O-])cc2c2cc(C(=O)N3CCOCC3)sc21 | 250 to 252
COC(=O)c1ccc2c(c1)ncn2-c1ccc(OC)c(C2CCCC2)c1 | 129 to 131
Cc1c(F)cccc1NC(=O)c1ccc(CN2C(=O)C3(COc4cc5c(cc43)CCO5)c3ccccc32)cc1 (configuration not stated) | 143 to 144
CCN1C(=O)CN=C(c2ccccc2F)c2cc(C(C)O)ccc21 (configuration not stated) | 48 to 50
CN1CC(c2ccc(OCc3ccc(F)cc3)cn2)=C(O)C1=O | 210 to 211
Cc1nn2c(c1Cl)N=NC2CCNC(=O)c1ccccc1C(=O)O (configuration not stated) | 162 to 166

Compound | melting point [°C]
O=c1nc(-c2cccc(CCCO)n2)sc2ccccc12 | 146
COc1cc(C(C)C)c2c(c1)S(=O)(=O)N(COC(=O)C1CCC(=O)N1)C2=O (configuration not stated) | 159 to 160
Cc1cc(C)c(NC(=O)CCCCCl)c(Cl)c1 | 80.6 to 82.9
COCOc1cc(Cl)ccc1-c1cc(-c2cccc([N+](=O)[O-])c2)c(C#N)c(N)n1 | 196 to 198
CC(=O)OCc1ccc(-c2nc3c(s2)C(=O)c2ccccc2C3=O)o1 | 204
O=[N+]([O-])c1ccc(I)c(-c2cc([N+](=O)[O-])ccc2I)c1 | 230 to 232
O=C(Nc1cccc(O)c1)c1ccc(CSc2ccc(O)cc2)cc1 | 218 to 222
CC(=O)N1C(=O)C(C(=O)Cc2cccs2)c2ccccc21 (configuration not stated) | 136 to 137
CCc1nn(-c2cc([N+](=O)[O-])ccc2Br)c(=O)n1Cc1ccc(-c2ccccc2S(=O)(=O)NC(C)(C)C)cc1F | 223 to 225
CS(=O)(=O)c1ccc(-c2cnn(Cc3ccccc3)c(=O)c2-c2ccc(Cl)c(Cl)c2)cc1 | 161 to 163
Nc1ccc2c(c1)C(=O)N(c1ccc(C(=O)O)cc1)C2=O | 270 to 271
COC(=O)CCc1ncc2c(c1C(=O)OC)CCO2 | 80 to 81
CC(C)(CO)CCCCN1C(=O)c2ccccc2C1=O | 74.8 to 75
CC(=O)c1cc2c(c(Cl)c1O)OC(C(O)=NO)C2 (configuration not stated) | 234 to 235
CCCCc1nc2ccccc2c(=O)[nH]1 | 153 to 155
Cc1ccc(-c2nc(-c3ccc(C)cc3)nc(-c3ccc(C)cc3)n2)cc1 | 282 to 285
N#CCc1cc(O)c(O)c(F)c1 | 100 to 101
C=CC(=O)NCCCCCC(=O)O | 88 to 90
CC(C)(C)c1ccc(Oc2ncnc3cc(-c4ncccc4C(F)(F)F)ccc23)cc1 | 162 to 163
CCC(N)CCCCCCCCC(C)(C)C(=O)O (configuration not stated) | 164 to 165
O=CNc1ccc(-c2ccncc2)cc1 | 188 to 190
O=C(CCCN1CCCCC1)c1ccc2[nH]c3ccc(C(=O)CCCN4CCCCC4)cc3c2c1 | 171 to 173
CC(=O)OC1CC(COC(=O)c2ccccc2)OC1n1cc(F)c(=O)[nH]c1=O (configuration not stated) | 68 to 70
Cc1oc(-c2ccco2)nc1COc1ccc(CCCn2ccnc2)cc1 | 89 to 90
CCOC(=O)C1=C(C)NC(N=C(C)N(C)C)=C(C(=O)OCC)C1c1ccccc1Cl (configuration not stated) | 181
Clc1ccc2[nH]cc(C3=CCNCC3)c2c1 | 177

Other lines, results leading:

melting point [°C] | Compound
32.5 to 50.8 | COC(=O)C(NCC(=O)c1ccccc1)C(C)C (racemic)
46 to 48 | COc1cc(CC2SC(=O)NC2=O)ccc1OCCN1c2ccccc2Sc2ccccc21 (configuration not stated)
267 to 268 | O=C(Nc1cccc2c1C(=O)c1c-2n[nH]c1-c1ccc(C(=O)N2CCC[C@H]2CO)s1)NN1CCOCC1
86 to 87 | CCOC(=O)CN(c1ccncc1F)n1ccc2ccccc21
86 to 88 | COc1ccc(C(=O)c2cccnc2)cc1[N+](=O)[O-]
148 to 150 | CN(O)C(=O)c1ccc(CCCCc2ccncc2)cc1
110 to 112 | CCCCC(=Nc1sc(Cl)cc1C(=O)NCCC)OC
87 to 89 | Cn1c(Cl)cnc1C#N
224 to 226 | O=C(CN1CCCC1=O)N1CCN(C(=O)CN2CC(c3ccc(Cl)cc3)CC2=O)CC1 (configuration not stated)
55 to 57 | C=CC[C@H](CC(=O)OC(C)(C)C)C(=O)N[C@H](C(=O)OCc1ccccc1)C(C)(C)C
125 to 126 | CC(C)(C)C(=O)Oc1ccc2c3c(cnc2c1)CCCC3O[Si](C)(C)C(C)(C)C (configuration not stated)
109 to 113 | COc1ccc(NN=C(Sc2ccc(Cl)c(Cl)c2)C(C)=O)cc1
155 | CC(=O)NC(C=CCP(=O)(O)O)C(=O)O (configuration not stated)
164 to 166 | CCc1ccc(-c2nnc(N3CCC(O)CC3)nc2-c2ccc(CC)cc2)cc1
208 to 210 | CCn1c(NC)n[nH]c1=O
239 | N#Cc1ccc(F)c(C2=Nc3ccc(-c4ccccc4F)cc3NC(=O)C2)c1
188 to 190 | CN1C(=O)CN(C2=CC(C)(C)Oc3ccc(C#N)cc32)C1=O
78 to 81.5 | O=C1c2ccccc2COc2ccc(CCO)cc21
89 to 90 | CCNC(=O)/C=C/c1cccc(Br)c1
165 to 167 | CCCCc1nc2cccc(C(=O)O)c2n1Cc1ccc(-n2cccc2-c2nnn[nH]2)cc1
254 to 255 | O=C(O)c1c[nH]c(=O)n(-c2ccccc2S)c1=O
195 to 197 | CC(=O)NC(C)Cc1cc2c(cc1CC(=O)O)OCO2 (configuration not stated)
77 | CN(C)C(=O)N(c1ccc(OC(F)(F)F)c(Cl)c1)C(C(=O)O)c1ccc(Cl)cc1 (configuration not stated)
170 to 172 | Cc1c(NC(=O)CC(C)(C)C)c(C)c2c(c1-c1cccc(N)c1)OCC2c1ccc(C(C)C)cc1 (configuration not stated)
171 | Cc1cc(Cc2cc(C(C)(C)C)cc(C(C)(C)C)c2O)c(O)c(-n2nc3ccccc3n2)c1

melting point [°C] | Compound
102 | COc1ccccc1NC(=O)Nc1nc(Nc2ccccc2-c2ccccc2)nc(N(CCC(=O)O)Cc2ccc(C)cc2)n1
192 to 193 | CCCCc1csc2ccc3[nH]c4c(c3c12)CN(C)CC4
193 | CCN(CC)CCC(=O)Nc1ccc2c(c1)C(=O)c1cc(NC(=O)CCN(CC)CC)ccc1C2=O
147 to 148 | CC(=O)N(C)c1cc(Br)cc(S(=O)(=O)c2ccccc2)c1
138 to 140 | CC(C)(C)OC(=O)N1CCNC(=O)C1Sc1ccccc1 (configuration not stated)
107 | CC(=O)CC(=O)Nc1cccc(NC(C)=O)c1
143 to 146 | CNCCCn1c(-c2ccc(OC)cc2)csc1=Nc1ccccc1
124 to 125 | CC(=O)SCSc1ncn(C(c2ccccc2)(c2ccccc2)c2ccccc2)n1
78 to 80 | COc1ccc(N)c(C2OCCO2)c1OC
87 | COC[C@H]1CN(c2ccc(OCCC3(O)CCCCC3)cc2)C(=O)O1
123 to 125 | COc1ccc2c(c1)c(CC(=O)OCCNC(=O)c1cccnc1)c(C)n2C(=O)c1ccc(Cl)cc1
228 to 231 | O=C(CCl)Nc1ccc2[nH]c(=O)oc2c1
244 to 245 | Cc1cc(C#N)cc(C(=O)c2c(C(C)C)c(=O)[nH]c(=O)n2CC2(CC(=O)O)CC2)c1
148 to 149 | COc1ccc(CCNC(=O)Nc2ccccc2CCc2cc(C(C)(C)C)c(O)c(C(C)(C)C)c2)cc1
101 to 109 | CC(=O)Nc1cc(Oc2c(Cl)cc(-n3ncc(=O)[nH]c3=O)cc2Cl)ccc1O
127 to 131 | CC(C)NCCNc1nc(Nc2cccc(NS(C)(=O)=O)c2)nc2[nH]ccc12
117 to 119 | CC(C)C(=O)NC(C)(C)C
73 to 74 | CCCCCCCCCCCCCCCCCC(=O)c1ccc(OC)c(C(=O)OC)c1
164 to 166 | CS(=O)CC(=O)c1cc(-c2ccccc2)on1 (configuration not stated)
133 to 134 | O=S(=O)(NCCc1ccncc1)c1ccc(Br)s1
184 to 185 | CC(C)Oc1cc(CCC(=O)NS(=O)(=O)c2ccccc2)n(Cc2ccc(Cl)cc2Cl)n1
198 to 204 | O=C(O)c1cccc(-c2ccc3c(n2)C(Oc2ccc(Cl)cc2Cl)CC3)c1 (configuration not stated)
184 | O=S(=O)(c1cccc(-c2cc(-c3nc(-c4ccc(C(F)(F)F)cc4)cc(C(F)(F)F)n3)ccn2)c1)N1CCCC1
230 to 231 | Cc1c(Cl)cc2c(c1Cl)OC(C(F)(F)F)C(C(=O)O)=C2 (configuration not stated)
105 | NSc1ccc([N+](=O)[O-])cc1C(Cl)(Cl)Cl
